Measured values reported in patent publication US9708377B2, “Scorpion toxin analogue and method for treating autoimmune diseases” (MONASH UNIVERSITY, priority 2013, dated 2017).

What was measured:
[1] = target: T1, mKv1.1 channels (Mus musculus, UniProt P16388); assay: Whole-cell patch-clamp block of Kv1.1 channels in L929 cells; format: cell-based; settings: for current block on Kv1.1 channels: 100 nM, n=3, preliminary
T1 construct: expressed in transfected cells
Experimental: Cells and Cell Lines—L929 mouse fibroblast cells stably expressing mKv1.1 and mKv1.3 channels (Grissmer S et al., 1994) were maintained in DMEM medium (Invitrogen Corporation, Carlsbad, Calif., United States of America) supplemented with 100 IU/mL penicillin, 0.1 μg/mL streptomycin, 2 mM L-glutamine, 10% heat-inactivated foetal bovine serum, and 0.5 mg/mL G418 (EMD Chemicals, Gibbstown, N.J., United States of America).
Electrophysiological Analysis—Experiments were conducted at room temperature in the whole-cell configuration of the patch-clamp technique. A manual setup and an automated Port-a-patch setup (Nanion, North Brunswick, N.J., United States of America) were used in parallel, both linked to a HEKA EPC10USB amplifier. […] The bath solution contained (in mM): 160 NaCl, 4.5 KCl, 2 CaCl2, 1 MgCl2, 10 HEPES, pH 7.2, 300 mOsm. Kv currents were elicited every 30 s by 200-ms depolarising pulses from a holding potential of −80 mV to 40 mV. Kd values and Hill coefficients were determined by fitting the Hill equation to the reduction of peak current measured at 40 mV.

[2] = target: T2, Kv1.3 (Rattus norvegicus, UniProt P15384); settings: C-terminal amidation; cited from earlier work
[3] = system: rat brain synaptosomal membranes; settings: cited from earlier work
[4] = target: T2, Kv1.3; settings: Kv1.3 complex; cited from earlier work
[5] = system: voltage-gated K+ channels; settings: rat brain synaptosomal membranes; read-out: IC50 competition with 125I-kaliotoxin binding; cited from earlier work
[6] = target: rat Kv1.3 channels (Rattus norvegicus, UniProt P15384); settings: Lebrun B et al., 1997; read-out: IC50 inhibition of rat Kv1.3 channels; cited from earlier work
[7] = target: Kv1.1 (Homo sapiens, UniProt Q09470); settings: Kv1.1 complex; cited from earlier work
Sequence of Kv1.1 (Q09470 whole entry): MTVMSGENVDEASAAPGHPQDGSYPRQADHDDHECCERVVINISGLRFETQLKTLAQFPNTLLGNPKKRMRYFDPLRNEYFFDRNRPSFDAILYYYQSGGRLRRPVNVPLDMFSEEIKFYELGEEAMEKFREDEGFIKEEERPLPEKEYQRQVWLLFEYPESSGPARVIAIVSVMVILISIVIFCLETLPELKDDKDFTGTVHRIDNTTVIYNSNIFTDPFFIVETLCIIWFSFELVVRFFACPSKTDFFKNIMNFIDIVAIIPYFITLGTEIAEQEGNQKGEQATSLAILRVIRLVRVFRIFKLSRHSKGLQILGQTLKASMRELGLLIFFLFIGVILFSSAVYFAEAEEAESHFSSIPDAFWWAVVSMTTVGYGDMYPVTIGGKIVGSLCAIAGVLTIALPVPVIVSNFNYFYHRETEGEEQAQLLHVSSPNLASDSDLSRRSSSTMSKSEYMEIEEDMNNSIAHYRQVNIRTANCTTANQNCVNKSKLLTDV

T1 sequence (P16388 whole entry): as the sequence (Q09470 whole entry) above, with V9A, A14T, V202I, N213T, M449I, V471A, A476G, N482D counted along it
T2 sequence (P15384 whole entry): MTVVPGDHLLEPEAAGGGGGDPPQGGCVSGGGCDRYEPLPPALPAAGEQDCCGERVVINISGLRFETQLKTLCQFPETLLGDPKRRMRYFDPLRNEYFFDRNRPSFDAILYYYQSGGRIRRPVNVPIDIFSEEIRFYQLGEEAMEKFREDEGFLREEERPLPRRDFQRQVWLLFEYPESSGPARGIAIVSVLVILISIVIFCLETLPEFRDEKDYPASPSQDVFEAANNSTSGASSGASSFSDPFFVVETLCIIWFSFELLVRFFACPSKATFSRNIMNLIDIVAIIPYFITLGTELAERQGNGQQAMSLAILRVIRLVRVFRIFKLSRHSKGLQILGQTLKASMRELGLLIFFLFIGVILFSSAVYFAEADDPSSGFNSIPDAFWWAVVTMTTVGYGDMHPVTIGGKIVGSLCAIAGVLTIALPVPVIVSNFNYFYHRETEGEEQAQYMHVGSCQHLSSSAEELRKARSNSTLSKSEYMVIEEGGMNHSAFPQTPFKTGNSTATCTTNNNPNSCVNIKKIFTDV
Sequence of rat Kv1.3 channels (P15384 whole entry): as above

| Compound | IC50 [1] | current block on Kv1.1 channels [1] | affinity for Kv1.3 of amidated form compared to synthetic carboxylated form [2] | competition with 125I-apamin binding [3] | Gb (exp) experimental binding free energy [4] | IC50 [5] | IC50 [6] | Gb (exp) experimental binding free energy [7] |
| --- | --- | --- | --- | --- | --- | --- | --- | --- |
| CSCC[C@@H]1NC(=O)[C@@H]2CSSC[C@H](NC(=O)[C@H](CO)NC(=O)[C@H](C)N)C(=O)N[C@@H](CCCNC(=N)N)C(=O)N[C@@H]([C@@H](C)O)C(=O)N3CCC[C@H]3C(=O)N[C@@H](CCCCN)C(=O)N[C@@H](CC(=O)O)C(=O)N[C@H]3CSSC[C@H](NC(=O)[C@H](CCCCN)NC(=O)[C@H](CCCNC(=N)N)NC(=O)[C@H](CC(N)=O)NC1=O)C(=O)N[C@@H](CCCCN)C(=O)N[C@H]1CSSC[C@H](NC(=O)[C@@H]4CCCN4C(=O)[C@H](CC(=O)O)NC(=O)[C@H](C)NC3=O)C(=O)N[C@@H](C)C(=O)N[C@@H](CCCCN)C(=O)N[C@@H](CCC(=O)O)C(=O)N[C@@H]([C@@H](C)O)C(=O)NCC(=O)N[C@@H](CSSC[C@@H](C(N)=O)NC(=O)[C@H](CCCNC(=N)N)NC(=O)[C@H](CC(N)=O)NC1=O)C(=O)N1CCC[C@H]1C(=O)N[C@@H](Cc1ccc(O)cc1)C(=O)NCC(=O)N[C@@H](CCCCN)C(=O)N2 [HsTX1[R14A]] | > 100 nM | 10-16% |  |  |  |  |  |  |
| CC[C@@H]1NC(=O)[C@@H]2CSSC[C@@H]3NC(=O)[C@H](CCCCN)NC(=O)[C@@H]4CSSC[C@H](NC(=O)[C@H](CC(=O)O)NC(=O)[C@H](CCCCN)NC(=O)[C@@H]5CCCN5C(=O)[C@H]([C@@H](C)O)NC(=O)[C@H](CCCNC(=N)N)NC(=O)[C@@H](NC(=O)[C@H](CO)NC(=O)[C@H](C)N)CSSC[C@H](NC(=O)[C@H](CCCCN)NC(=O)CNC(=O)[C@H](Cc5ccc(O)cc5)NC(=O)[C@@H]5CCCN5C(=O)[C@H](CSSC[C@@H](C(N)=O)NC(=O)[C@H](CCCNC(=N)N)NC(=O)[C@H](CC(N)=O)NC3=O)NC(=O)CNC(=O)[C@H]([C@@H](C)O)NC(=O)[C@H](CCC(=O)O)NC(=O)[C@H](CCCCN)NC1=O)C(=O)N[C@@H](CCSC)C(=O)N[C@@H](CC(N)=O)C(=O)N[C@@H](CCCNC(=N)N)C(=O)N[C@@H](CCCCN)C(=O)N4)C(=O)N[C@@H](C)C(=O)N[C@@H](CC(=O)O)C(=O)N1CCC[C@H]1C(=O)N2 [HsTX1[R14Abu], ASCRTPKDCADPCXKETGCPYGKCMNRKCKCNRC] | > 100 nM | 15-20% |  |  |  |  |  |  |
| ASCRTPKDCADPCRKETGCPYGKCMNRKCKCNRC [HsTX1] |  |  | five-fold greater affinity for Kv1.3 | did not compete | -14.9 ± 0.2 kcal/mol | ~0.001 nM | ~0.012 nM | -11.1 ± 0.1 kcal/mol |
